One assay addresses T1, aldose reductase (Homo sapiens, UniProt P15121).
T1 construct: partially purified aldose reductase enzyme obtained from human placenta; from tissue; host or cells: human placenta
As to the kind of experiment: inhibition of aldose reductase enzyme activity (procedure of S. Hayman et al. as modified by K. Sestanj et al.). The format is biochemical. Particulars: for inhibition at 10 µM: 10^-5 M, partially purified aldose reductase from human placenta; for aldose reductase inhibitor potency (in words): no concentration given. As to the method: (§1) The activity of the compounds of the present invention, as agents for the control of chronic diabetic complications, is determined by their ability to successfully pass one or more of the following standard biological or pharmacological tests, viz., (1) measuring their ability to inhibit the enzyme activity of isolated aldose reductase; (2) measuring their ability to reduce or inhibit sorbitol accumulation in the sciatic nerve of acutely streptozotocinized (i.e., diabetic) rats; (3) measuring their ability to reverse already-elevated sorbitol levels in the sciatic nerve and lens of chronic streptozotocin-induced diabetic rats; (4) measuring their ability to prevent or inhibit galactitol formation in the lens of acutely galactosemic rats, and (5) measuring their ability to delay cataract formation and reduce the severity of lens opacities in chronic galactosemic rats.
The following oxindole-1-alkanoic acid final products of Examples 1-12, respectively, were tested at a concentration level of 10^-5 M for their ability to reduce or inhibit aldose reductase enzyme activity via the procedure of S. Hayman et al., as described in the Journal of Biological Chemistry, Vol. 240, p. 877 (1965) and as modified by K. Sestanj et al. in U.S. Pat. No. 3,821,383. In every case, the substrate employed was partially purified aldose reductase enzyme obtained from human placenta.

In assay [1] the test system is sorbitol levels in diabetic rats. The assay can be described thus: inhibition of sorbitol formation in diabetic rats, oral route. Particulars: dose levels ranging from 0.75 mg./kg. to 20 mg./kg. Type of assay: in vivo, rat.
Excerpt: As previously indicated, the 3-substituted 2-oxo-indoline-1-alkanoic acid compounds of this invention are readily adapted to therapeutic use as aldose reductase inhibitors for the control of chronic diabetic complications, in view of their ability to reduce lens sorbitol levels in diabetic subjects to a statistically significant degree. […] Furthermore, the herein described compounds of this invention can be administered by either the oral or parenteral routes of administration. […]
as §1

The source of these data is patent US5064852A, “Indolinone derivatives” (Pfizer Inc., priority 1990, dated 1991).

By inhibition is commonly meant the change of the read-out against control, counted positive when it falls. Read a low inhibition as little suppression.

With `O=C(O)CN1C(=O)C(Cc2ccc(Cl)c(Cl)c2)c2ccccc21` (stereo not drawn) [Example 1, 3-(3,4-dichlorobenzyl)-2-oxo-indoline-1-acetic acid], at aldose reductase, at 10 µM the inhibition was 92% and the “aldose reductase inhibitor potency (in words)” value is “highly potent”. Moreover, the “inhibition of the formation of sorbitol levels in diabetic rats (in words)” value in assay [1] was “significantly high degree”.

In the case of `O=C(O)CN1C(=O)C(Cc2ccc(Cl)c(Cl)c2)c2cc(Cl)ccc21` (stereo not drawn) [Example 2, 5-chloro-3-(3,4-dichlorobenzyl)-2-oxo-indoline-1-acetic acid], at aldose reductase, the inhibition at 10 µM came to 88% and the “aldose reductase inhibitor potency (in words)” value is reported as “highly potent”.

At aldose reductase, `O=C(O)CN1C(=O)C(Cc2ccc(Cl)c(Cl)c2)c2ccc(F)cc21` (stereo not drawn) [Example 3, 3-(3,4-dichlorobenzyl)-6-fluoro-2-oxo-indoline-1-acetic acid] returned an inhibition at 10 µM of 68%.

`COc1cc2c(cc1OC)N(CC(=O)O)C(=O)C2Cc1ccc(Cl)c(Cl)c1` (stereo not drawn) [Example 4, 3-(3,4-dichlorobenzyl)-5,6-dimethoxy-2-oxo-indoline-1-acetic acid]: 10 µM produced 55% inhibition against aldose reductase.

For the molecule `COc1ccc2c(c1)N(CC(=O)O)C(=O)C2Cc1ccc(Cl)c(Cl)c1` (stereo not drawn) [Example 5, 3-(3,4-dichlorobenzyl)-6-methoxy-2-oxo-indoline-1-acetic acid], on aldose reductase, at 10 µM the inhibition was 81% and the “aldose reductase inhibitor potency (in words)” value is listed as “highly potent”.

As for `CC(C(=O)O)N1C(=O)C(Cc2ccc(Cl)c(Cl)c2)c2ccccc21` (stereo not drawn) [Example 6, 3-(3,4-dichlorobenzyl)-2-oxo-indoline-1-(α-methyl)acetic acid], testing at 10 µM at aldose reductase gave an inhibition of 25%.

As for `CC(c1ccc(Cl)c(Cl)c1)C1C(=O)N(CC(=O)O)c2ccccc21` (stereo not drawn) [Example 7, 3-(3,4-dichloro-α-methylbenzyl)-2-oxo-indoline-1-acetic acid], on aldose reductase, testing at 10 µM gave an inhibition of 94% and the “aldose reductase inhibitor potency (in words)” value was “highly potent”.

On aldose reductase, `O=C(O)CN1C(=O)C2(Cc3ccccc3C2)c2ccccc21` [Example 8, 1,2-dihydro-spiro-inden[2,3']indolin-2'-one-1'-acetic acid] showed an inhibition at 10 µM of 66%.

The molecule `O=C(O)CN1C(=O)C2(Cc3ccc(Cl)cc3C2)c2ccccc21` (stereo not drawn) [Example 9, 5(6)-chloro-1,2-dihydro-spiro-inden[2,3']indolin-2'-one-1'-acetic acid] showed an inhibition at 10 µM at aldose reductase of 71%.

In turn, `O=C(O)CN1C(=O)C(Cc2ccc(Cl)c(Cl)c2)(Cc2ccc(Cl)c(Cl)c2)c2ccccc21` [Example 10, 3,3-di(3,4-dichlorobenzyl)-2-oxo-indoline-1-acetic acid] yielded an inhibition at 10 µM against aldose reductase of 20%.

On aldose reductase, `CC(c1ccc(Cl)c(Cl)c1)C1(C)C(=O)N(CC(=O)O)c2ccccc21` (stereo not drawn) [Example 11, 3-(3,4-dichloro-α-methylbenzyl)-3-methyl-2-oxo-indoline-1-acetic acid] yielded an inhibition at 10 µM of 72%.

Regarding `O=C(O)CN1C(=O)C(Cc2ccc(Cl)c(Cl)c2)c2ccc(O)cc21` (stereo not drawn) [Example 12, 3-(3,4-dichlorobenzyl)-6-hydroxy-2-oxo-indoline-1-acetic acid], on aldose reductase, the inhibition at 10 µM worked out at 79% and the “aldose reductase inhibitor potency (in words)” value was “highly potent”.
